Assays:
synthetic Aβ(1-40) = target: T1, synthetic Aβ(1-40) (Homo sapiens, UniProt P05067); experiment: Competition of [3H]BTA-1 binding from synthetic Aβ(1-40); conditions: for Ki: inhibition constant for competition of [3H]BTA-1 binding from synthetic Aβ(1-40), phosphate-buffered saline pH 7.4
T1 construct: host or cells: chemically synthesised peptide
Procedure: (§1) The characteristics of benzofuran derivative binding were analyzed using synthetic Aβ(1-40) and 2-(4′-[^3H]methylamino-phenyl)-benzothiazole ([^3H]BTA-1) in phosphate-buffered saline (pH 7.4) as previously described. Klunk et al., Life Sci. 69:1471 (2001); Mathis et al., Bioorg. Med. Chem. Lett., 12:295 (2002).
as §1, with “7.4),” for “7.4)”, “(2002). The table below lists the inhibition constants (Ki) of the four compounds shown for competition of [^3H]BTA-1 binding from synthetic Aβ(1-40).” for “(2002).”

[1] = Baboon brain entry study (PET); format: in vivo; conditions: 40 kg baboon, 8 mCi intravenously, PET imaging over 2 h post injection
Procedure: A 40 kg baboon was anesthetized, immobilized, and placed on a ventilator. The baboon was positioned in a PET scanner to image the brain, and a transmission scan was performed to correct for attenuation. The baboon was injected intravenously with a solution containing 8 mCi of 5-Methoxy-2-(4′-fluorophenyl)benzofuran, and the brain was imaged in a series of increasing data collection time bins over 2 h post injection. Following data acquisition, the images were reconstructed and regions of interest were drawn. Decay and […] corrected time-activity curves (TAC) were generated for each of the regions to determine the quantitative time course of radioactivity in each brain region.

T1 sequence (P05067 672-711): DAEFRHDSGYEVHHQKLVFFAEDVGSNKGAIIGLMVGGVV

Compound | Ki (synthetic Aβ(1-40)) [nM] | further results
Oc1ccc2oc(-c3ccc(F)cc3)cc2c1 | 27.7 | –
COc1ccc2cc(-c3ccc(F)cc3)oc2c1 | 3.9 | –
Oc1ccc2cc(-c3ccc(F)cc3)oc2c1 | 96 | –
Oc1ccc2oc(-c3ccc(OCCCF)cc3)cc2c1 | 1.2 | –
Nc1ccc2oc(-c3ccc(F)cc3)cc2c1 | 28 | –
CNc1ccc2oc(-c3ccc(F)cc3)cc2c1 | 2.8 | –
CN(C)c1ccc2oc(-c3ccc(F)cc3)cc2c1 | 2 | –
COc1ccc2oc(-c3ccc(F)cc3)cc2c1 [5-Methoxy-2-(4′-fluorophenyl)benzofuran] | – | affinity of the ligand in vitro for aggregated amyloid (synthetic Aβ(1-40); in vitro, in words): relatively high affinity; brain penetration of the radiotracer (time-activity curves) [1]: excellent brain penetration; clearance of radioactivity from normal baboon brain (time-activity curves) [1]: rapid clearance
COc1ccc2oc(-c3ccc(F)cc3)cc2c1 [drawing 23] | 3.7 | –

From patent publication US8138360B2, “Isotopically-labeled benzofuran compounds as imaging agents for amyloidogenic proteins” (University of Pittsburgh—of the Commonwealth System of …, priority 2005, dated 2012)
